# Data from US6946447B2, “MDM2-specific antisense oligonucleotides” (Hybridon, Inc., priority 1997, dated 2005).
# Like-named read-outs stand apart in the source and are kept apart here.
# Key:
# MDM2 [1] = assay: MDM2 protein level by immunoprecipitation/Western blot in oligonucleotide-treated cells; type: cell-based, human; settings: JAR cells, 18 h, Lipofectin 7 μg/ml, Western blot (FIG. 2A)
# JAR cells = assay: Induction of apoptosis / cell death in JAR cells; type: cell-based, human; settings: 400 nM, 30 h, Lipofectin
# Experimental: JAR cells (ATCC) were grown in DMEM medium supplemented with 1% FBS according to standard cell culture techniques. Cells were then treated for 30 hours with growth medium containing 400 nM of either antisense oligonucleotide AS5 (SEQ ID NO:28) complementary to a portion of MDM2-encoding RNA or control oligonucleotide M4 (SEQ ID NO:5), and 7 μg/ml lipofectin (Gibco BRL Paisley, UK). Treated cells were then photographed using a phase contrast microscope.
# JAR cells were treated for 24 hours as described in Example 6. Floating cells were harvested and chromosomal DNA was extracted according to standard techniques (Liu et al., Cell 86:147-157 (1996)). Purified DNA was then analyzed by agarose gel electrophoresis on a 2% agarose gel. Following electrophoresis the gel was stained with 0.5 μg/ml ethidium bromide.
# MDM2 [2] = settings: JAR and SJSA cells, 100-400 nM, Lipofectin; cited from earlier work
# DLD-1 cells = assay: DLD-1 cell growth by trypan blue viability staining; type: cell-based, human; settings: 72 hr, Lipofectin
# Text: (§1) Chemicals and Reagents. Cell culture media and phosphate-buffered saline (PBS) were obtained from Sigma Chemical Co. (St. Louis, Mo.). Fetal bovine serum (FBS), antibodies against p53 and p21, Lipofectin, trypsin, penicillin-streptomycin, and trypan blue stain were purchased from GIBCO-BRL (Grand Island, N.Y.). The anti-human-MDM2 monoclonal antibody (Chen L. et al., Proc Natl Acad Sci USA, 95: 195-200, 1998; Chen L. et al., Mol. Med. 5: 21-34, 1999) was kindly provided by J. Chen (Moffitt Cancer Center, Tampa, Fla.). Chemotherapeutic agents adriamycin and 5-fluorouracil (5-FU) were obtained from Sigma. […] The MDM2, p53 and p21 levels in cultured cells were analyzed by using the methods described previously (earlier (Chen L. et al., Proc Natl Acad Sci USA, 95: 195-200, 1998; Chen L. et al., Mol. Med. 5: 21-34, 1999; Wang H. et al., Int J. Oncol. 15: 653-660, 1999). In brief, cell lysate containing identical amounts of total protein were fractionated by SDS-PAGE and transferred to Bio-Rad Trans-Blot nitrocellulose membranes (Bio-Rad Laboratories, Hercules, Calif., USA). The nitrocellulose membrane was then incubated with blocking buffer (PBS containing 0.1% Tween 20 and 5% non-fat milk) for 1 hr at room temperature and washed with the washing buffer (PBS containing 0. […]
# LS174T cells = assay: LS174T cell growth by trypan blue viability staining; type: cell-based, human; settings: 72 hr, Lipofectin
# Text: as §1
# [3] = system: MDM2, p53 and p21 protein levels in LS174T cells; assay: Western blot of MDM2, p53 and p21 in LS174T cells; type: cell-based, human; settings: 400 nM Oligo 24 hr
# Text: (§2) Chemicals and Reagents. Cell culture media and phosphate-buffered saline (PBS) were obtained from Sigma Chemical Co. (St. Louis, Mo.). Fetal bovine serum (FBS), antibodies against p53 and p21, Lipofectin, trypsin, penicillin-streptomycin, and trypan blue stain were purchased from GIBCO-BRL (Grand Island, N.Y.). The anti-human-MDM2 monoclonal antibody (Chen L. et al., Proc Natl Acad Sci USA, 95: 195-200, 1998; Chen L. et al., Mol. Med. 5: 21-34, 1999) was kindly provided by J. Chen (Moffitt Cancer Center, Tampa, Fla.). Chemotherapeutic agents adriamycin and 5-fluorouracil (5-FU) were obtained from Sigma. Natural product topoisomerase I inhibitor 10-hydroxycamptothecin (HCPT) was obtained from the Midwest Co. (Beijing, China) with the purity of the drug being greater than 98% (Zhang R. et al., Cancer Chemother Pharm 41: 257-267, 1998). Cell Culture. The tumor cell lines, LS174T and DLD-1 were obtained from the American Type Culture Collection (Rockville, Md.) and cultured according to their instructions. LS 174T cells were cultured in MEM with 0.1 mM nonessential amino acids and Earle's balanced salt solution containing 10% FBS and DLD-1 cells in RPMI 1640 medium containing 10% FBS. All media included 1% penicillin/streptomycin. […] Cells were incubated with Oligos AS or ASM at various concentrations for 72 hr, in the presence of Lipofectin (7 μg/ml). […] Western Blot Analysis. The MDM2, p53 and p21 levels in cultured cells were analyzed by using the methods described previously (earlier (Chen L. et al., Proc Natl Acad Sci USA, 95: 195-200, 1998; Chen L. et al., Mol. Med. 5: 21-34, 1999; Wang H. et al., Int J. Oncol. 15: 653-660, 1999). In brief, cell lysate containing identical amounts of total protein were fractionated by SDS-PAGE and transferred to Bio-Rad Trans-Blot nitrocellulose membranes (Bio-Rad Laboratories, Hercules, Calif., USA). The nitrocellulose membrane was then incubated with blocking buffer (PBS containing 0.1% Tween 20 and 5% non-fat milk) for 1 hr at room temperature and washed with the washing buffer (PBS containing 0. 1% Tween 20) for 5 min twice. The membrane was incubated with primary (anti-MDM2, anti-p53, or anti-p21) antibody overnight at 4° C. or for 1 hr at room temperature with gentle shaking. The membrane was washed with the washing buffer for 15 min and then twice for 5 min, and then incubated with 1:5000 diluted goat anti-mouse IgG-horse radish peroxidase conjugated antibody (Bio-Rad, Hercules, Calif.) for 1 hr at room temperature. After washing as described above the protein of interest was detected by ECL reagents from Amersham (Arlington Height, Ill.). Results. LS174T Model. In vitro inhibition of MDM2 expression by Oligo AS was shown in a sequence-specific, increasing dose-dependent manner (FIG. 19). […] Control oligonucleotide, Oligo ASM had no effect on MDM2, p53 or p21 protein levels at 500 nM, the highest concentration tested in the study.
# Following in vitro combination treatment of Oligos and chemotherapeutic agents HCPT, adriamycin, and 5-FU, the protein levels of MDM2, p53 and p21 were determined in LS174T cells. Cells were incubated with 400 nM Oligo in the presence of Lipofectin for 24 hr, followed by addition of various concentrations of chemotherapeutic agents and incubation for additional 24 hr.
# [4] = mice bearing LS174T xenografts
# [5] = system: MDM2, p53 and p21 protein levels in LS174T cells; assay: Western blot of MDM2, p53 and p21 in LS174T cells; type: cell-based, human; settings: up to 500 nM, 24 hr, Lipofectin
# [6] = system: human colon cancer DLD-1 xenografts; assay: Tumor growth in nude mice bearing DLD-1 xenografts; type: in vivo
# [7] = mice bearing DLD-1 xenografts
# [8] = system: MDM2, p53 and p21 protein levels in DLD-1 cells; assay: Western blot of MDM2, p53 and p21 in DLD-1 cells; type: cell-based, human
# Text: as §2
# Following in vitro combination treatment of Oligos and chemotherapeutic agents HCPT, adriamycin, and 5-FU, the protein levels of MDM2, p53 and p21 were determined in DLD-1 cells. Cells were incubated with 200 nM Oligo in the presence of Lipofectin for 24 hr, followed by addition of various concentrations of chemotherapeutic agents and incubation for an additional 24 hr.
# [9] = system: human colon cancer LS174T xenografts; assay: Tumor growth in nude mice bearing LS174T xenografts
# [10] = day 3, oligo 20, HCPT 3, 5-FU 10 mg/kg/day
# [11] = day 6, oligo 20, HCPT 3, 5-FU 10 mg/kg/day
# [12] = day 9, oligo 20, HCPT 3, 5-FU 10 mg/kg/day
# [13] = day 12, oligo 20, HCPT 3, 5-FU 10 mg/kg/day
# [14] = day 15, oligo 20, HCPT 3, 5-FU 10 mg/kg/day
substance,measurement,setting,value
"M4: mismatch control oligonucleotide of AS5 with four mismatches, 5′-GATGACTCACACCATCATGG-3′; SEQ ID NO:5 (listed as DNA, chemistry not given here) [Oligo M4]",inhibition of MDM2 expression,MDM2 [1],not observed
same,cell death / apoptosis morphology,JAR cells,significantly less apoptosis
same,decrease of MDM2 protein levels,MDM2 [2],no effect
"Oligo ASM: mismatched control of Oligo AS, 5′-UGTCACCCTTTTTCATUCAC-3′; SEQ ID NO:50 (chemistry not given here)",effect on tumor cell growth,DLD-1 cells,no significant effect
same,effect on tumor cell growth,LS174T cells,no significant effect
same,"MDM2, p53 and p21 protein levels, oligo pre-treatment then 5-FU",[3]; then 5-FU 24 hr,minimal effect
same,"MDM2, p53 and p21 protein levels, oligo pre-treatment then HCPT",[3]; then HCPT 24 hr,minimal effect
same,"MDM2, p53 and p21 protein levels, oligo pre-treatment then adriamycin",[3]; then adriamycin 24 hr,minimal effect
same,Survival Rates of Animals,[4]; day 3,100%
same,Survival Rates of Animals,[4]; day 6,100%
same,Survival Rates of Animals,[4]; day 9,100%
same,Survival Rates of Animals,[4]; day 12,100%
same,Survival Rates of Animals,[4]; day 15,100%
same,Survival Rates of Animals,[4]; day 18,100%
same,"effect on MDM2, p53 and p21 protein levels",[5],no effect
same,effect of combination treatment on tumor growth,[6],no significant effect
same,effect on in vivo tumor growth,[6]; 20 mg/kg/day,minimal effect
same,Ratio (%) of % T:C with oligo to % T:C without oligo ([2]/[1] or [3]/[1]),[6]; day 3,82%
same,Growth ratio % T:C,[6]; [10],81.5%
same,Ratio (%) of % T:C with oligo to % T:C without oligo ([2]/[1] or [3]/[1]),[6]; day 6,88%
same,Growth ratio % T:C,[6]; [11],87.5%
same,Ratio (%) of % T:C with oligo to % T:C without oligo ([2]/[1] or [3]/[1]),[6]; day 9,70%
same,Growth ratio % T:C,[6]; [12],79.3%
same,Ratio (%) of % T:C with oligo to % T:C without oligo ([2]/[1] or [3]/[1]),[6]; day 12,66%
same,Growth ratio % T:C,[6]; [13],66.4%
same,Ratio (%) of % T:C with oligo to % T:C without oligo ([2]/[1] or [3]/[1]),[6]; day 15,79%
same,Growth ratio % T:C,[6]; [14],79.3%
same,Ratio (%) of % T:C with oligo to % T:C without oligo ([2]/[1] or [3]/[1]),[6]; day 18,81%
same,Growth ratio % T:C,"[6]; day 18, oligo 20, HCPT 3, 5-FU 10 mg/kg/day",81.0%
same,Ratio (%) of % T:C with oligo to % T:C without oligo ([2]/[1] or [3]/[1]),[6]; day 21,76%
same,Growth ratio % T:C,"[6]; day 21 (end of experiment), oligo 20, HCPT 3, 5-FU 10 mg/kg/day",76.0%
same,Survival Rates of Animals,[7]; day 3,100%
same,Survival Rates of Animals,[7]; day 6,100%
same,Survival Rates of Animals,[7]; day 9,100%
same,Survival Rates of Animals,[7]; day 12,100%
same,Survival Rates of Animals,[7]; day 15,100%
same,Survival Rates of Animals,[7]; day 18,100%
same,Survival Rates of Animals,[7]; day 21,66.7%
same,"effect on MDM2, p53 or p21 protein levels",[8],no effect
same,"MDM2, p53 and p21 protein levels, oligo pre-treatment then 5-FU","[8]; 200 nM Oligo 24 hr, then 5-FU 24 hr",minimal effect
same,"MDM2 and p21 protein levels, oligo pre-treatment then HCPT","[8]; 200 nM Oligo 24 hr, then HCPT 24 hr",minimal effect
same,"MDM2 and p21 protein levels, oligo pre-treatment then adriamycin","[8]; 200 nM Oligo 24 hr, then adriamycin 24 hr",minimal effect
same,effect of combination treatment on tumor growth,[9],no significant effect
same,xenograft pathology (tumor histology),[9],indistinguishable histologically
same,effect on in vivo tumor growth,[9]; daily ip dose 20 mg/kg,minimal effect
same,Ratio (%) of % T:C with oligo to % T:C without oligo ([2]/[1] or [3]/[1]),[9]; day 3,99%
same,Growth ratio % T:C (mean tumor mass of treated group vs saline control),[9]; [10],98.6%
same,Ratio (%) of % T:C with oligo to % T:C without oligo ([2]/[1] or [3]/[1]),[9]; day 6,105%
same,Growth ratio % T:C (mean tumor mass of treated group vs saline control),[9]; [11],104.9%
same,Ratio (%) of % T:C with oligo to % T:C without oligo ([2]/[1] or [3]/[1]),[9]; day 9,70%
same,Growth ratio % T:C (mean tumor mass of treated group vs saline control),[9]; [12],69.7%
same,Ratio (%) of % T:C with oligo to % T:C without oligo ([2]/[1] or [3]/[1]),[9]; day 12,82%
same,Growth ratio % T:C (mean tumor mass of treated group vs saline control),[9]; [13],81.5%
same,Ratio (%) of % T:C with oligo to % T:C without oligo ([2]/[1] or [3]/[1]),[9]; day 15,79%
same,Growth ratio % T:C (mean tumor mass of treated group vs saline control),[9]; [14],79.4%
same,Ratio (%) of % T:C with oligo to % T:C without oligo ([2]/[1] or [3]/[1]),[9]; day 18,72%
same,Growth ratio % T:C (mean tumor mass of treated group vs saline control),"[9]; day 18 (end of experiment), oligo 20, HCPT 3, 5-FU 10 mg/kg/day",73.3%
same,Ratio (%) of % T:C with oligo to % T:C without oligo ([2]/[1] or [3]/[1]),"[9]; day 18, listed as ASM",73%
